The source of these data is patent publication US20230081426A1, “COMPOUNDS AND METHODS FOR KRAS MODULATION AND INDICATIONS THEREFOR” (Plexxikon Inc., priority 2020, published 2023).

Assay [1] deals with T1, G12D-mutant human KRAS (amino acid residues 1-188) (Homo sapiens, UniProt P01116, G12D).
T1 construct: G12D or G12C-mutant human KRAS (amino acid residues 1-188) with FLAG tag; made in house; host or cells: E. coli
The experiment in a line: KRAS Binding Disruption Assay (AlphaScreen; biotinylated KRpep-2d analogue or RAF1-RBD), G12D. Conditions: KRAS G12D; geometric mean; read-out: KRAS GMean IC50 (uM) MUTATION: G12D. A digest of the protocol: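 Compounds are titrated against 5-20 nM mutant KRAS and 5-20 nM of either a biotinylated KRpep-2d analogue or RAF1-RBD, incubated 1 h at 25° C. Disruption is detected as reduced Alpha signal after 1 h with donor and acceptor beads at 10 μg/mL.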
On the technique in general: Alpha assays give light when donor and acceptor beads are brought close together.

In assay [2] the target is T2, G12V-mutant human KRAS (amino acid residues 1-188) (Homo sapiens, UniProt P01116, G12V).
T2 construct: G12V-mutant human KRAS (amino acid residues 1-188) with FLAG tag was purified from E. coli; made in house; host or cells: E. coli
The experiment in a line: KRAS Binding Competition Assay (AlphaScreen; biotinylated KRpep-2d analogue), G12V. Conditions: geometric mean, read-out: KRAS GMean IC50 (uM) MUTATION: G12V.

In the case of `CN1CCC[C@H]1COc1nc(N2[C@@H]3CC[C@H]2CN(C(=N)N)C3)c2ccc(-c3cc(O)cc4ccccc34)cc2n1` [P-0231, (1R,5S)-8-(7-(3-hydroxynaphthalen-1-yl)-2-(((S)-1-methylpyrrolidin-2-yl)methoxy)quinazolin-4-yl)-3,8-diazabicyclo[3.2.1]octane-3-carboximidamide], the IC50 in assay [1] and in assay [2] was 10 to 100 µM throughout.

As to `Oc1cc(-c2ccc3c(N4[C@@H]5CC[C@H]4CNC5)nc(CCc4ccccn4)nc3c2)c2ccccc2c1` [P-0232, 4-(4-((1R,5S)-3,8-diazabicyclo[3.2.1]octan-8-yl)-2-(2-(pyridin-2-yl)ethyl)quinazolin-7-yl)naphthalen-2-ol], the IC50 in assay [1] lay within 0.0001 to 10 µM; in assay [2], 10 to 100 µM.

On to `NC(=O)CCc1nc(N2[C@@H]3CC[C@H]2CNC3)c2ccc(-c3cc(O)cc4ccccc34)cc2n1` [P-0233, 3-(4-((1R,5S)-3,8-diazabicyclo[3.2.1]octan-8-yl)-7-(3-hydroxynaphthalen-1-yl)quinazolin-2-yl)propanamide], for which the IC50 in assay [1] and in assay [2] was 0.0001 to 10 µM each time.

For `CN1CCC[C@H]1COc1nc(N2C[C@H]3CC[C@@H](C2)N3)c2ccc(-c3cncc(Cl)c3Cl)cc2n1` [P-0234, 4-((1R,5S)-3,8-diazabicyclo[3.2.1]octan-3-yl)-7-(4,5-dichloropyridin-3-yl)-2-(((S)-1-methylpyrrolidin-2-yl)methoxy)quinazoline], the values for the IC50 in assay [1] and in assay [2] were 10 to 100 µM and 100 to 1000 µM, respectively.

In the case of `CN1CCC[C@H]1COc1nc(N2CC3CCC(C2)N3)c2ccc(-c3cc(Cl)cn4ccnc34)cc2n1` [P-0235], the half-maximal inhibitory concentration (IC50) in assay [1] and in assay [2] was 10 to 100 µM in each case.

On to `CN1CCC[C@H]1COc1nc(N2C[C@H]3CC[C@@H](C2)N3)c2ccc(-c3c(Cl)ccc4[nH]ccc34)cc2n1` [P-0236, 4-((1R,5S)-3,8-diazabicyclo[3.2.1]octan-3-yl)-7-(5-chloro-1H-indol-4-yl)-2-(((S)-1-methylpyrrolidin-2-yl)methoxy)quinazoline], for which the half-inhibitory concentration (IC50) in assay [1] and in assay [2] was 10 to 100 µM each time.

As to `CN1CCc2ccc(Oc3nc(N4[C@@H]5CC[C@H]4CNC5)c4ccc(-c5cc(O)cc6ccccc56)cc4n3)cc2C1` [P-0237, 4-(4-((1R,5S)-3,8-diazabicyclo[3.2.1]octan-8-yl)-2-((2-methyl-1,2,3,4-tetrahydroisoquinolin-7-yl)oxy)quinazolin-7-yl)naphthalen-2-ol], the IC50 in assay [1] and in assay [2] was 10 to 100 µM throughout.

In the case of `CN1CCc2cc(Oc3nc(N4[C@@H]5CC[C@H]4CNC5)c4ccc(-c5cc(O)cc6ccccc56)cc4n3)ccc2C1` [P-0238, 4-(4-((1R,5S)-3,8-diazabicyclo[3.2.1]octan-8-yl)-2-((2-methyl-1,2,3,4-tetrahydroisoquinolin-6-yl)oxy)quinazolin-7-yl)naphthalen-2-ol], the IC50 in assay [1] and in assay [2] was 0.0001 to 10 µM in each case.

On to `CN1CCCC(Oc2nc(N3[C@@H]4CC[C@H]3CNC4)c3ccc(-c4cc(O)cc5ccccc45)cc3n2)C1` (stereo partly drawn) [P-0239, 4-(4-((1R,5S)-3,8-diazabicyclo[3.2.1]octan-8-yl)-2-((1-methylpiperidin-3-yl)oxy)quinazolin-7-yl)naphthalen-2-ol], for which the IC50 in assay [1] and in assay [2] was 0.0001 to 10 µM throughout.

Turning to `Oc1cc(-c2ccc3c(N4[C@@H]5CC[C@H]4CNC5)nc(Cc4cccnc4)nc3c2)c2ccccc2c1` [P-0240, 4-(4-((1R,5S)-3,8-diazabicyclo[3.2.1]octan-8-yl)-2-(pyridin-3-ylmethyl)quinazolin-7-yl)naphthalen-2-ol], the IC50 in assay [1] and in assay [2] was 0.0001 to 10 µM each time.

Turning to `Oc1cc(-c2ccc3c(N4[C@@H]5CC[C@H]4CNC5)nc(CCc4cccnc4)nc3c2)c2ccccc2c1` [P-0241, 4-(4-((1R,5S)-3,8-diazabicyclo[3.2.1]octan-8-yl)-2-(2-(pyridin-3-yl)ethyl)quinazolin-7-yl)naphthalen-2-ol], the IC50 in assay [1] and in assay [2] was 0.0001 to 10 µM each time.

In the case of `CN(C)c1ccc(CCc2nc(N3C[C@H]4CC[C@@H](C3)N4)c3ccc(-c4cc(O)cc5ccccc45)cc3n2)cc1` [P-0242, 4-(4-((1R,5S)-3,8-diazabicyclo[3.2.1]octan-3-yl)-2-(4-(dimethylamino)phenethyl)quinazo-lin-7-yl)naphthalen-2-ol], the IC50 in assay [1] and in assay [2] was 0.0001 to 10 µM throughout.

As for `Nc1ccc(CCc2nc(N3[C@@H]4CC[C@H]3CNC4)c3ccc(-c4cc(O)cc5ccccc45)cc3n2)cc1` [P-0243, 4-(2-(4-aminophenethyl)-4-((1R,5S)-3,8-diazabicyclo[3.2.1]octan-8-yl)quinazolin-7-yl)naphthalen-2-ol], the IC50 in assay [1] and in assay [2] was 0.0001 to 10 µM throughout.

Regarding `CN(C)c1ccc(/C=C/c2nc(N3[C@@H]4CC[C@H]3CNC4)c3ccc(-c4cc(O)cc5ccccc45)cc3n2)cc1` [P-0244, 4-(4-((1R,5S)-3,8-diazabicyclo[3.2.1]octan-8-yl)-2-((E)-4-(dimethylamino)styryl)quinazolin-7-yl)naphthalen-2-ol], the IC50 in assay [1] and in assay [2] was 10 to 100 µM each time.

For the compound `C[C@@H](Oc1nc(N2C[C@H]3CC[C@@H](C2)N3)c2ccc(-c3cc(O)cc4ccccc34)cc2n1)[C@@H]1CCCN1C` [P-0245, 4-(4-((1R,5S)-3,8-diazabicyclo[3.2.1]octan-3-yl)-2-((R)-1-((S)-1-methylpyrrolidin-2-yl)ethoxy)quinazolin-7-yl)naphthalen-2-ol], the IC50 in assay [1] and in assay [2] was 0.0001 to 10 µM throughout.

Take `CN1CC[C@@H](NC(=O)N2[C@H]3CC[C@@H]2CN(c2nc(OC[C@@H]4CCCN4C)nc4c(F)c(-c5cc(O)cc6ccccc56)ccc24)CC3)C1` [P-0246, (1R,6S)-3-(8-fluoro-7-(3-hydroxynaphthalen-1-yl)-2-(((S)-1-methylpyrrolidin-2-yl)methoxy)quinazolin-4-yl)-N-((R)-1-methylpyrrolidin-3-yl)-3,9-diazabicyclo[4.2.1]nonane-9-carboxamide]: the IC50 in assay [1] lay in the range of 0.0001 to 10 µM; in assay [2] it was 10 to 100 µM.

`CN1CCN(CCCC(=O)N2C3CCC2CN(c2nc(OC[C@@H]4CCCN4C)nc4c(F)c(-c5cc(O)cc6ccccc56)ccc24)CC3)CC1` (stereo partly drawn) [P-0247, 1-(3-(8-fluoro-7-(3-hydroxynaphthalen-1-yl)-2-(((S)-1-methylpyrrolidin-2-yl)methoxy)quinazolin-4-yl)-3,9-diazabicyclo[4.2.1]nonan-9-yl)-4-(4-methylpiperazin-1-yl)butan-1-one]: the IC50 in assay [1] and in assay [2] was 10 to 100 µM each time.

Regarding `CN1CCC[C@H]1COc1nc(N2CC[C@@H]3CC[C@H](C2)N3C(=O)NC2CCOC2)c2ccc(-c3cc(O)cc4ccccc34)c(F)c2n1` (stereo partly drawn) [P-0248, (1R,6 S)-3-(8-fluoro-7-(3-hydroxynaphthalen-1-yl)-2-(((S)-1-methylpyrrolidin-2-yl)methoxy)quinazolin-4-yl)-N-(tetrahydrofuran-3-yl)-3,9-diazabicyclo[4.2.1]nonane-9-carboxamide], the IC50 in assay [1] is 10 to 100 µM; in assay [2], 0.0001 to 10 µM.

On to `CN1CC[C@@H](NC(=O)N2C3COCC2CN(c2nc(OC[C@@H]4CCCN4C)nc4c(F)c(-c5cc(O)cc6ccccc56)ccc24)C3)C1` [P-0250, 7-(8-fluoro-7-(3-hydroxynaphthalen-1-yl)-2-(((S)-1-methylpyrrolidin-2-yl)methoxy)quinazolin-4-yl)-N-((R)-1-methylpyrrolidin-3-yl)-3-oxa-7,9-diazabicyclo[3.3.1]nonane-9-carboxamide], for which the IC50 in assay [1] and in assay [2] was 0.0001 to 10 µM each time.

On to `CN1CCN(CCCC(=O)N2C3COCC2CN(c2nc(OC[C@@H]4CCCN4C)nc4c(F)c(-c5cc(O)cc6ccccc56)ccc24)C3)CC1` [P-0252, 1-(7-(8-fluoro-7-(3-hydroxynaphthalen-1-yl)-2-(((S)-1-methylpyrrolidin-2-yl)methoxy)quinazolin-4-yl)-3-oxa-7,9-diazabicyclo[3.3.1]nonan-9-yl)-4-(4-methylpiperazin-1-yl)butan-1-one], for which the IC50 in assay [1] and in assay [2] was 10 to 100 µM throughout.

With `CN1CCC[C@H]1COc1nc(N2C[C@H]3CC[C@@H](C2)N3)c2ccc(-c3c[nH]c4ccc(Cl)cc34)cc2n1` [P-0253, 4-((1R,5S)-3,8-diazabicyclo[3.2.1]octan-3-yl)-7-(5-chloro-1H-indol-3-yl)-2-(((S)-1-methylpyrrolidin-2-yl)methoxy)quinazoline], the IC50 lay in the range of 10 to 100 µM in assay [1] and 100 to 1000 µM in assay [2].

Consider `CN1CCC[C@H]1COc1nc(N2C[C@H]3CC[C@@H](C2)N3)c2ccc(-c3c[nH]c4ccccc34)cc2n1` [P-0254, 4-((1R,5S)-3,8-diazabicyclo[3.2.1]octan-3-yl)-7-(1H-indol-3-yl)-2-(((S)-1-methylpyrrolidin-2-yl)methoxy)quinazoline], for which the IC50 in assay [1] and in assay [2] was 10 to 100 µM each time.

Regarding `CN1CCC[C@H]1COc1nc(N2C[C@H]3CC[C@@H](C2)N3)c2ccc(-c3c[nH]c4cccc(Cl)c34)cc2n1` [P-0255, 4-((1R,5S)-3,8-diazabicyclo[3.2.1]octan-3-yl)-7-(4-chloro-1H-indol-3-yl)-2-(((S)-1-methylpyrrolidin-2-yl)methoxy)quinazoline], the IC50 in assay [1] and in assay [2] was 10 to 100 µM in each case.

`CN1CCC[C@H]1COc1nc(N2[C@@H]3CC[C@H]2CNC3)c2ccc(-c3cccc4ccccc34)cc2n1` [P-0257, 4-((1R,5S)-3,8-diazabicyclo[3.2.1]octan-8-yl)-2-(((S)-1-methylpyrrolidin-2-yl)methoxy)-7-(naphthalen-1-yl)quinazoline]: the half-inhibitory concentration (IC50) in assay [1] and in assay [2] was 10 to 100 µM in each case.

By IC50 is commonly meant the point on the concentration scale where inhibition reaches its midpoint.
